Data on three compounds can be found in ChEMBL document CHEMBL4417634, “DNA2 inhibitors for cancer treatment” (2018).

SMILES strings stand for the structures. pIC50: −log10 of the molar value. Active and inactive are the calls of the source. No cut-off for these calls is given here.

Test [1] deals with Saccharomyces cerevisiae. The test can be described thus: Potentiation of DNA damaging agent methyl methane sulfonate-induced cytotoxicity in yeast cells by dilution assay. Type of test: functional, organism-based.
Test [2] relates to Saccharomyces cerevisiae. The test can be described thus: Potentiation of DNA damaging agent methyl methane sulfonate-induced cytotoxicity in yeast cells deficient in rad27 by dilution assay. The format is functional, organism-based.
The test system of test [3] is Saccharomyces cerevisiae. Briefly: Potentiation of high temperature-induced cytotoxicity in yeast cells deficient in rad27 by dilution assay. Type of test: functional, organism-based.
In test [4] the test system is Saccharomyces cerevisiae. Briefly: Potentiation of high temperature-induced cytotoxicity in yeast cells by dilution assay. The format is functional, organism-based.
Test [5] has as its system U2OS. Briefly: Induction of single-stranded DNA accumulation in human U2OS cells assessed as reduction in P-RPA foci at 50 uM. Type of test: functional, cell-based.
Test [6] has as its system HCT-116. The test can be described thus: Cell cycle arrest in human HCT116 cells assessed as accumulation at G1 phase at 50 uM incubated for 48 hrs by propidium iodide staining based flow cytometry (reference value: 76.2%). Type of test: functional.
Test [7] deals with HCT-116. Briefly: Cytotoxicity against human HCT116 cells assessed as reduction in cell viability incubated for 7 days. Type of test: functional, cell-based. The conditions noted are these: HCT-116, 168 h.
The test system of test [8] is HCT-116. The test can be described thus: Cell cycle arrest in human HCT116 cells assessed as accumulation at S phase at 10 uM incubated for 48 hrs by propidium iodide staining based flow cytometry (reference value: […]). Type of test: functional.
For test [9], the system named is HCT-8. Briefly: Cytotoxicity against human HCT8 cells assessed as reduction in cell viability incubated for 7 days. Type of test: functional, cell-based. The conditions noted are these: HCT-8, 168 h.
Test [10] relates to HCT-116. Briefly: Cytotoxicity against human HCT116 cells assessed as reduction in cell viability at 10 to 10000 nM in presence of siEXO1 by tryphan blue staining based assay. Type of test: functional.
Test [11] concerns the target Flap endonuclease 1 (Homo sapiens) (UniProt P39748).
The test system of test [12] is LNCaP C4-2. Briefly: Cytotoxicity against human C4-2 cells assessed as reduction in cell viability incubated for 7 days. Type of test: functional, cell-based. The note with it: LNCaP C4-2, 168 h.
Test [13] deals with CWR22R. The test can be described thus: Cytotoxicity against human 22Rv1 cells assessed as reduction in cell viability incubated for 7 days. The format is functional, cell-based. The note with it: 22Rv1, 168 h.
Test [14] has as its target Exonuclease 1 (Homo sapiens) (UniProt Q9UQ84).
The test system of test [15] is IMR-90. Briefly: Cytotoxicity against human IMR90 cells assessed as reduction in cell viability incubated for 7 days. The note with it: IMR-90, 168 h. Type of test: cell-based.
Test [16] deals with WiDr. The test can be described thus: Cytotoxicity against human WiDr cells assessed as reduction in cell viability incubated for 7 days. Type of test: functional, cell-based. The note with it: 168 h.
In test [17] the test system is MDA-MB-231. Briefly: Cytotoxicity against human MDA-MB-231 cells assessed as reduction in cell viability incubated for 7 days. Type of test: functional, cell-based. The conditions noted are these: MDA-MB-231, 168 h.
In test [18] the test system is HCT-116. Briefly: Cytotoxicity against human HCT116 cells assessed as reduction in cell viability at 10 to 10000 nM in presence of siFEN1 by tryphan blue staining based assay. Type of test: functional.
Test [19] concerns NCI-H460. Briefly: Cytotoxicity against human NCI-H460 cells assessed as reduction in cell viability incubated for 7 days. The format is functional, cell-based. The conditions noted are these: NCI-H460, 168 h.
Test [20] concerns HCT-116. Briefly: Cell cycle arrest in human HCT116 cells assessed as accumulation at G1 phase at 10 uM incubated for 48 hrs by propidium iodide staining based flow cytometry (reference value: 76.2%). The format is functional.
The species named for test [21] is Homo sapiens. Briefly: Suppression of 125 nM cisplatin-induced cytotoxicity in FANCD2 (-/-) human PD20 cells assessed as increase in cell survival at 10 uM. The format is functional, cell-based.
The test system of test [22] is NCI-H2030. Briefly: Cytotoxicity against human NCI-H2030 cells assessed as reduction in cell viability incubated for 7 days. Type of test: functional, cell-based. The conditions noted are these: NCI-H2030, 168 h.
For test [23], the system named is HT-29. The test can be described thus: Cytotoxicity against human HT-29 cells assessed as reduction in cell viability incubated for 7 days. The format is functional, cell-based. The conditions noted are these: HT-29, 168 h.
The species entered for test [24] is Mus musculus. Briefly: Cytotoxicity against dna2 (-/-) mouse MES cells assessed as cell survival relative to control. The format is functional, cell-based.
Test [25] deals with MCF-10A. Briefly: Cytotoxicity against human MCF10A cells assessed as reduction in cell viability incubated for 7 days. The format is cell-based. The note with it: 168 h.
Test [26] relates to HCT-116. Briefly: Cell cycle arrest in human HCT116 cells assessed as accumulation at G2/M phase at 50 uM incubated for 48 hrs by propidium iodide staining based flow cytometry (reference value: […]). Type of test: functional.
Test [27] has as its system HCT-116. The test can be described thus: Cell cycle arrest in human HCT116 cells assessed as accumulation at G2/M phase at 10 uM incubated for 48 hrs by propidium iodide staining based flow cytometry (reference value: […]). The format is functional.
The test system of test [28] is MCF7. The test can be described thus: Cytotoxicity against human MCF7 cells assessed as reduction in cell viability incubated for 7 days. The format is functional, cell-based. The note with it: MCF7, 168 h.
Test [29] has as its system HCT-116. The test can be described thus: Cytotoxicity against human HCT116 cells assessed as reduction in cell viability at 10 to 10000 nM in presence of siMRE11 by tryphan blue staining based assay. Type of test: functional.
For test [30], the system named is PC-3. Briefly: Cytotoxicity against human PC3 cells assessed as reduction in cell viability incubated for 7 days. The format is functional, cell-based. The conditions noted are these: PC-3, 168 h.
Test [31] concerns A549. Briefly: Cytotoxicity against human A549 cells assessed as reduction in cell viability incubated for 7 days. The format is functional, cell-based. The conditions noted are these: A549, 168 h.
Test [32] relates to U2OS. The test can be described thus: Induction of single-stranded DNA accumulation in human U2OS cells assessed as reduction in P-RPA foci at 20 uM. The format is functional, cell-based.
The test system of test [33] is FHC. Briefly: Cytotoxicity against human FHC cells assessed as reduction in cell viability incubated for 7 days. The format is cell-based. The note with it: 168 h.
Test [34] relates to RWPE-1. The test can be described thus: Cytotoxicity against human RWPE1 cells assessed as reduction in cell viability incubated for 7 days. The format is cell-based. The conditions noted are these: RWPE-1, 168 h.
Test [35] in a line: Cytotoxicity against human CWRR1 cells assessed as reduction in cell viability incubated for 7 days. The note with it: 168 h. Type of test: functional, cell-based.
Test [36] has as its system HCT-116. The test can be described thus: Cell cycle arrest in human HCT116 cells assessed as accumulation at S phase at 50 uM incubated for 48 hrs by propidium iodide staining based flow cytometry (reference value: […]). The format is functional.
Test [37] concerns MCF7. The test can be described thus: Cytotoxicity against human MCF7 cells transfected with shDNA2 assessed as cell survival relative to control. Type of test: functional, cell-based.
The test system of test [38] is DLD-1. Briefly: Cytotoxicity against human DLD1 cells assessed as reduction in cell viability incubated for 7 days. The format is functional, cell-based. The note with it: DLD-1, 168 h.

Chain of Flap endonuclease 1 (Homo sapiens) (P39748 whole entry): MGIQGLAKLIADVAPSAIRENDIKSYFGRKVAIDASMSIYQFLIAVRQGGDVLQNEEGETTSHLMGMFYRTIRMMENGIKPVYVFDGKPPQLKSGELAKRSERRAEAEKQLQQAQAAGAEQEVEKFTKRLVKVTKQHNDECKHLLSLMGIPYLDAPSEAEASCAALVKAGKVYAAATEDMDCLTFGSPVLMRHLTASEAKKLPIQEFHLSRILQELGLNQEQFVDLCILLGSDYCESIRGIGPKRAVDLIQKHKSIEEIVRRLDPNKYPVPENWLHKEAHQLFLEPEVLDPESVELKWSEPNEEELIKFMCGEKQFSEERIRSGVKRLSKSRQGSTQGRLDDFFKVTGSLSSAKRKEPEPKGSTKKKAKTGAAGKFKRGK
Chain of Exonuclease 1 (Homo sapiens) (Q9UQ84 whole entry): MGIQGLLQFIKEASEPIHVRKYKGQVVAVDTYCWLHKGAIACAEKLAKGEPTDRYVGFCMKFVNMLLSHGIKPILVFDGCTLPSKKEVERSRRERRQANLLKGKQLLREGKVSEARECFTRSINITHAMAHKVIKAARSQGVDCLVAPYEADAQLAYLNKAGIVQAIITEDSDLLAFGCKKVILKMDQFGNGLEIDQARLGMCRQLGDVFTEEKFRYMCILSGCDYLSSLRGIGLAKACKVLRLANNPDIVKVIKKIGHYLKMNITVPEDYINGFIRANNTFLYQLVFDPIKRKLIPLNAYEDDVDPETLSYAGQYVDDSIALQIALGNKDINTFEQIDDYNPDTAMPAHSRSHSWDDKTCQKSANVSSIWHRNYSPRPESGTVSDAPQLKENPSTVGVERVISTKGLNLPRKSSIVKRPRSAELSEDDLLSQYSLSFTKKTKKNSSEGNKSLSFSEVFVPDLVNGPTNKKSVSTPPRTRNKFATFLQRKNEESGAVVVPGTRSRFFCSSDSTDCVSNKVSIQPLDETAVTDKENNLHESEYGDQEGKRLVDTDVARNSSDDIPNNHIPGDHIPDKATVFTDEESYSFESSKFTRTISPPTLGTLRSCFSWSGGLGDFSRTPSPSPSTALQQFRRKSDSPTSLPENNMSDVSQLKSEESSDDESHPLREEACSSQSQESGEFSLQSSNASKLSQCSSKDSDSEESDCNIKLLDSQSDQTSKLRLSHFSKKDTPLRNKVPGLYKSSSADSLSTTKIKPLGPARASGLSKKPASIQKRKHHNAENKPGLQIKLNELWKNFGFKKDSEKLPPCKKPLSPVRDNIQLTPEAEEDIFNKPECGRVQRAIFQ

For the compound `CCCCNC(=O)c1c[nH]c2c([N+](=O)[O-])cccc2c1=O`, the result in [1] and in [4] was inactive. Besides, the outcome in [2] and in test [3] was Active.
Turning to `N=C1NC(=O)/C(=C/c2ccc(O)cc2)S1`, the result in test [5] was inactive.
With `O=C(O)c1cnc2c([N+](=O)[O-])cccc2c1O`, the Activity in test [6] is recorded as 54.1%; in test [8], 13%; in test [20], 66.9%; in test [26], 28.1%; in test [27] it was 12.6%; in [36] it was 17.2%. The pIC50 in [7] was 4.62; in [9] it was 4.56; in [12], 4.71; in test [13], 4.93; in test [15], 4.02; in test [16], 4.28. Further, the pIC50 in [17] is 4.33; in test [19] it was 4.36; in test [22], 4.75; in test [23], 4.39; in test [25], 4.61; in test [28] it was 5.14. Besides, the pIC50 was 4.68 in [30]; 4.63 in [31]; 4.12 in test [33]; 4.10 in [34]; 4.80 in test [35]; 4.60 in test [38]. The outcome in [10], in [18], in test [21], in test [2], in test [24] and in test [3] was Active. For the same compound, the result in [29] and in test [37] was Active. In addition, the inhibition result in test [11] and in test [14] was “inactive” throughout. Besides, the result in test [1], in test [4] and in test [32] was inactive.
